According to publication PMC5399447, “Neuroprotective pentapeptide CN-105 is associated with reduced sterile inflammation and improved functional outcomes in a traumatic brain injury murine model” (Scientific Reports, 2017):

Tested on: 84 genes related to inflammatory and autoimmune processes
Assay: Mouse Inflammatory Response and Autoimmunity PCR Array, whole brain
Type: in vivo
Description: Frozen, pulverized whole brain tissue was processed for RNA extraction from a separate cohort of treated and untreated injured animals on days 1 post-injury(CN-105, n = 4; vehicle, n = 3; Control(sham-operated), n = 3). Total RNA was extracted from frozen, pulverized whole brain tissue using RNeasy Lipid Tissue Mini Kit(Qiagen, Valencia, CA). RNA quantity and quality was assessed with the NanoDrop ND-1000 spectrophotometer(NanoDrop Technologies, Inc., Wilmington, DE) and by agarose gel electrophoresis. Only samples with a 260/280 ratio between 1.9–2.1, and a 260/230 ratio greater than 2.0, were further processed. First strand complementary DNA(cDNA) was generated from 2 μg total RNA using the RT[2] First strand kit(SABiosciences, Frederick, MD.)
Gene expression was measured using the Mouse Inflammatory Response and Autoimmunity PCR Array(SABiosciences, Frederick, MD), which profiles the expression of 84 genes related to inflammatory and autoimmune processes. RT-PCR was performed according to manufacturer’s instructions Quality of the cDNA and PCR efficiency was verified by housekeeping genes and RT-PCR controls included in the PCR Array.
Raw RT-PCR data were analyzed using the Web-Based PCR Array Data Analysis software(SABiosciences). ΔCt values and ΔΔCt - based fold-change were calculated from raw threshold cycle data, using beta-actin and glyceraldehyde 3-phosphate dehydrogenase(GAPDH) as internal standards for normalization. Fold changes were then normalized against sham-operated controls.

[1] = TBI + CN-105 0.05 mg/kg iv 2 h post injury, brain 24 h
[2] = TBI CN-105 vs TBI vehicle, brain 24 h post TBI
[3] = TBI CN-105 vs sham vehicle, brain 24 h

Ac-VSRRR-amide [CN-105]
Bcl6 ΔCt value, TBI-CN-105 [1]: 5.7E − 01
C3ar1 ΔCt value, TBI-CN-105 [1]: 1.2E − 01
C3 ΔCt value, TBI-CN-105 [1]: 1.9E − 03
C4b ΔCt value, TBI-CN-105 [1]: 5.9E − 01
Ccl1 ΔCt value, TBI-CN-105 [1]: 9.1E − 01
Ccl2 ΔCt value, TBI-CN-105 [1]: 2.5E − 02
Ccl3 ΔCt value, TBI-CN-105 [1]: 8.9E − 03
Ccl4 ΔCt value, TBI-CN-105 [1]: 1.2E − 02
Ccl5 ΔCt value, TBI-CN-105 [1]: 3.4E − 03
Ccl7 ΔCt value, TBI-CN-105 [1]: 3.7E − 03
Ccl8 ΔCt value, TBI-CN-105 [1]: 4.2E − 03
Ccl11 ΔCt value, TBI-CN-105 [1]: 1.8E − 01
Ccl12 ΔCt value, TBI-CN-105 [1]: 1.3E − 02
Ccl17 ΔCt value, TBI-CN-105 [1]: 1.0E − 03
Ccl19 ΔCt value, TBI-CN-105 [1]: 3.4E − 03
Ccl20 ΔCt value, TBI-CN-105 [1]: 7.9E − 02
Ccl22 ΔCt value, TBI-CN-105 [1]: 2.2E − 02
Ccl24 ΔCt value, TBI-CN-105 [1]: 5.1E − 03
Ccl25 ΔCt value, TBI-CN-105 [1]: 9.5E − 02
Ccr1 ΔCt value, TBI-CN-105 [1]: 3.0E − 04
Ccr2 ΔCt value, TBI-CN-105 [1]: 1.5E − 03
Ccr3 ΔCt value, TBI-CN-105 [1]: 1.1E − 01
Ccr4 ΔCt value, TBI-CN-105 [1]: 3.1E − 02
Ccr7 ΔCt value, TBI-CN-105 [1]: 3.4E − 02
Cd40lg ΔCt value, TBI-CN-105 [1]: 4.2E − 03
Cd40 ΔCt value, TBI-CN-105 [1]: 2.1E − 02
Cebpb ΔCt value, TBI-CN-105 [1]: 2.4E − 01
Crp ΔCt value, TBI-CN-105 [1]: 7.1E − 04
Csf1 ΔCt value, TBI-CN-105 [1]: 1.2E − 02
Cxcl1 ΔCt value, TBI-CN-105 [1]: 1.8E − 03
Cxcl2 ΔCt value, TBI-CN-105 [1]: 1.7E − 03
Cxcl3 ΔCt value, TBI-CN-105 [1]: 1.6E + 00
Cxcl5 ΔCt value, TBI-CN-105 [1]: 1.4E + 00
Cxcl9 ΔCt value, TBI-CN-105 [1]: 2.2E − 03
Cxcl10 ΔCt value, TBI-CN-105 [1]: 5.3E − 04
Cxcl11 ΔCt value, TBI-CN-105 [1]: 8.8E − 03
Cxcr4 ΔCt value, TBI-CN-105 [1]: 9.0E − 02
Fasl ΔCt value, TBI-CN-105 [1]: 6.7E − 04
Flt3l ΔCt value, TBI-CN-105 [1]: 7.1E − 04
Fos ΔCt value, TBI-CN-105 [1]: 1.7E − 01
Hdac4 ΔCt value, TBI-CN-105 [1]: 8.3E − 01
Ifng ΔCt value, TBI-CN-105 [1]: 4.3E − 03
Il1a ΔCt value, TBI-CN-105 [1]: 5.4E − 02
Il1b ΔCt value, TBI-CN-105 [1]: 4.6E − 01
Il1f10 ΔCt value, TBI-CN-105 [1]: 5.5E − 03
Il1r1 ΔCt value, TBI-CN-105 [1]: 7.5E − 04
Il1rap ΔCt value, TBI-CN-105 [1]: 8.2E − 04
Il1rn ΔCt value, TBI-CN-105 [1]: 1.7E − 03
Il6ra ΔCt value, TBI-CN-105 [1]: 1.6E − 01
Il6 ΔCt value, TBI-CN-105 [1]: 1.8E − 03
Il7 ΔCt value, TBI-CN-105 [1]: 5.9E − 01
Il8ra ΔCt value, TBI-CN-105 [1]: 2.6E − 03
Il8rb ΔCt value, TBI-CN-105 [1]: 5.4E − 03
Il9 ΔCt value, TBI-CN-105 [1]: 1.4E − 02
Il10rb ΔCt value, TBI-CN-105 [1]: 2.2E − 02
Il10 ΔCt value, TBI-CN-105 [1]: 1.6E − 03
Il18rap ΔCt value, TBI-CN-105 [1]: 6.6E − 03
Il18 ΔCt value, TBI-CN-105 [1]: 9.6E − 03
Il22ra2 ΔCt value, TBI-CN-105 [1]: 8.2E − 02
Il22 ΔCt value, TBI-CN-105 [1]: 3.4E − 03
Il23a ΔCt value, TBI-CN-105 [1]: 2.3E − 02
Il23r ΔCt value, TBI-CN-105 [1]: 8.0E − 04
Itgb2 ΔCt value, TBI-CN-105 [1]: 5.3E − 02
Kng1 ΔCt value, TBI-CN-105 [1]: 8.5E − 03
Lta ΔCt value, TBI-CN-105 [1]: 1.1E − 01
Ltb ΔCt value, TBI-CN-105 [1]: 3.9E − 02
Ly96 ΔCt value, TBI-CN-105 [1]: 7.7E − 02
Myd88 ΔCt value, TBI-CN-105 [1]: 6.6E − 03
Nfatc3 ΔCt value, TBI-CN-105 [1]: 3.2E + 00
Nfkb1 ΔCt value, TBI-CN-105 [1]: 5.3E − 03
Nos2 ΔCt value, TBI-CN-105 [1]: 1.6E − 01
Nr3c1 ΔCt value, TBI-CN-105 [1]: 1.2E − 02
Ripk2 ΔCt value, TBI-CN-105 [1]: 2.1E − 01
Tirap ΔCt value, TBI-CN-105 [1]: 5.3E − 02
Tlr1 ΔCt value, TBI-CN-105 [1]: 7.4E − 03
Tlr2 ΔCt value, TBI-CN-105 [1]: 9.1E − 03
Tlr3 ΔCt value, TBI-CN-105 [1]: 5.8E − 02
Tlr4 ΔCt value, TBI-CN-105 [1]: 2.0E − 02
Tlr5 ΔCt value, TBI-CN-105 [1]: 1.7E − 03
Tlr6 ΔCt value, TBI-CN-105 [1]: 7.0E − 03
Tlr7 ΔCt value, TBI-CN-105 [1]: 9.1E − 01
Tnf ΔCt value, TBI-CN-105 [1]: 3.8E − 02
Tnfsf14 ΔCt value, TBI-CN-105 [1]: 9.0E − 03
Tollip ΔCt value, TBI-CN-105 [1]: 5.1E − 02
Bcl6 Fold Change [2]: 921
C3 Fold Change [2]: 1.5
C3ar1 Fold Change [2]: −3.1
C4b Fold Change [2]: −1.1
Ccl1 Fold Change [2]: 1.5
Ccl2 Fold Change [2]: −2.6
Ccl3 Fold Change [2]: 1.5
Ccl4 Fold Change [2]: −2.6
Ccl5 Fold Change [2]: −1.6
Ccl7 Fold Change [2]: −1.2
Ccl8 Fold Change [2]: 31.2
Ccl11 Fold Change [2]: −3.6
Ccl12 Fold Change [2]: 64.2
Ccl17 Fold Change [2]: −1.7
Ccl19 Fold Change [2]: −5.2
Ccl20 Fold Change [2]: −1.5
Ccl22 Fold Change [2]: 60.2
Ccl24 Fold Change [2]: −14.8
Ccl25 Fold Change [2]: −1.2
Ccr1 Fold Change [2]: 2.3
Ccr2 Fold Change [2]: −48.3
Ccr3 Fold Change [2]: 5.4
Ccr4 Fold Change [2]: 1.2
Ccr7 Fold Change [2]: 1.2
Cd40 Fold Change [2]: −7.8
Cd40lg Fold Change [2]: −1.2
Cebpb Fold Change [2]: −1.5
Crp Fold Change [2]: 1.2
Csf1 Fold Change [2]: −2.0
Cxcl1 Fold Change [2]: −8.3
Cxcl2 Fold Change [2]: 4.8
Cxcl3 Fold Change [2]: 2.4
Cxcl5 Fold Change [2]: 6257
Cxcl9 Fold Change [2]: −70.3
Cxcl10 Fold Change [2]: −47.9
Cxcl11 Fold Change [2]: 2.6
Cxcr4 Fold Change [2]: −7.3
Fasl Fold Change [2]: −2.0
Flt3l Fold Change [2]: −1.4
Fos Fold Change [2]: −1.2
Hdac4 Fold Change [2]: −1.1
Ifng Fold Change [2]: −12.9
Il1a Fold Change [2]: −10.1
Il1b Fold Change [2]: −1.6
Il1f10 Fold Change [2]: 3.8
Il1r1 Fold Change [2]: 3.5
Il1rap Fold Change [2]: −2.2
Il1rn Fold Change [2]: −1.6
Il6 Fold Change [2]: −29.8
Il6ra Fold Change [2]: −2.9
Il7 Fold Change [2]: 515
Il8ra Fold Change [2]: 1.2
Il8rb Fold Change [2]: 1.1
Il9 Fold Change [2]: 1.2
Il10 Fold Change [2]: −9.3
Il10rb Fold Change [2]: 2.6
Il18 Fold Change [2]: 7.2
Il18rap Fold Change [2]: −3.6
Il22 Fold Change [2]: −1.7
Il22ra2 Fold Change [2]: 10895
Il23a Fold Change [2]: 18.5
Il23r Fold Change [2]: 5.8
Itgb2 Fold Change [2]: −1.5
Kng1 Fold Change [2]: −1.1
Lta Fold Change [2]: −1.2
Ltb Fold Change [2]: 3.6
Ly96 Fold Change [2]: 61.2
Myd88 Fold Change [2]: −273
Nfatc3 Fold Change [2]: 10044
Nfkb1 Fold Change [2]: −16.6
Nr3c1 Fold Change [2]: 13.7
Ripk2 Fold Change [2]: −1.1
Tirap Fold Change [2]: −1.5
Tlr1 Fold Change [2]: −1.4
Tlr2 Fold Change [2]: 1.0
Tlr3 Fold Change [2]: 1.3
Tlr4 Fold Change [2]: −9.0
Tlr5 Fold Change [2]: 2.5
Tlr6 Fold Change [2]: −170
Tlr7 Fold Change [2]: 19.0
Tnf Fold Change [2]: 6.9
Tnfsf14 Fold Change [2]: −2.8
Tollip Fold Change [2]: −2.9
Bcl6 fold change TBI-CN-105/S-v [3]: 11.2
C3ar1 fold change TBI-CN-105/S-v [3]: 34.9
C3 fold change TBI-CN-105/S-v [3]: 4.6
C4b fold change TBI-CN-105/S-v [3]: 163.3
Ccl2 fold change TBI-CN-105/S-v [3]: 42.3
Ccl3 fold change TBI-CN-105/S-v [3]: 17.7
Ccl4 fold change TBI-CN-105/S-v [3]: 32.3
Ccl5 fold change TBI-CN-105/S-v [3]: 3.8
Ccl7 fold change TBI-CN-105/S-v [3]: 2.9
Ccl8 fold change TBI-CN-105/S-v [3]: 5.6
Ccl11 fold change TBI-CN-105/S-v [3]: 2253.1
Ccl12 fold change TBI-CN-105/S-v [3]: 3.7
Ccl17 fold change TBI-CN-105/S-v [3]: −2.6
Ccl19 fold change TBI-CN-105/S-v [3]: −5.8
Ccl20 fold change TBI-CN-105/S-v [3]: 3086.8
Ccl22 fold change TBI-CN-105/S-v [3]: 176.2
Ccl24 fold change TBI-CN-105/S-v [3]: 159.1
Ccl25 fold change TBI-CN-105/S-v [3]: 16.9
Ccr1 fold change TBI-CN-105/S-v [3]: −2.5
Ccr2 fold change TBI-CN-105/S-v [3]: 5.6
Ccr3 fold change TBI-CN-105/S-v [3]: 66.6
Ccr4 fold change TBI-CN-105/S-v [3]: 7945.9
Ccr7 fold change TBI-CN-105/S-v [3]: 283.2
Cd40 fold change TBI-CN-105/S-v [3]: 38.8
Cebpb fold change TBI-CN-105/S-v [3]: 3.5
Csf1 fold change TBI-CN-105/S-v [3]: 1.1
Cxcl1 fold change TBI-CN-105/S-v [3]: 29.4
Cxcl2 fold change TBI-CN-105/S-v [3]: 25.5
Cxcl3 fold change TBI-CN-105/S-v [3]: 54032.0
Cxcl5 fold change TBI-CN-105/S-v [3]: 957.4
Cxcl9 fold change TBI-CN-105/S-v [3]: 32.2
Cxcl10 fold change TBI-CN-105/S-v [3]: −1.7
Cxcl11 fold change TBI-CN-105/S-v [3]: 372.3
Cxcr4 fold change TBI-CN-105/S-v [3]: 21.0
Fasl fold change TBI-CN-105/S-v [3]: 3.2
Flt3l fold change TBI-CN-105/S-v [3]: −2.8
